Data taken from ChEMBL document CHEMBL1629647, “Preclinical evaluation of GS-9160, a novel inhibitor of human immunodeficiency virus type 1 integrase” (Antimicrob Agents Chemother, 2009).

Assays:
[1] = tested on: Human immunodeficiency virus 1; assay: Selectivity ratio of EC50 for antiviral activity against HIV1 harboring E92V, G140S and V151A mutation in catalytic core domain of integrase to EC50 for antiviral activity against wild-type HIV1 3B; type: functional
[2] = tested on: Human immunodeficiency virus 1; assay: Selectivity ratio of EC50 for antiviral activity against APV-resistant HIV1 selected after 2 passages to EC50 for antiviral activity against wild-type HIV1 3B; type: functional
[3] = tested on: Human immunodeficiency virus 1; assay: Selectivity ratio of EC50 for antiviral activity against HIV1 harboring G140S mutation in catalytic core domain of integrase to EC50 for antiviral activity against wild-type HIV1 3B; type: functional
[4] = tested on: Human immunodeficiency virus 1; assay: Selectivity ratio of EC50 for antiviral activity against NNRTI-resistant HIV1 harboring RTK103N mutant gene to EC50 for antiviral activity against wild-type HIV1 3B; type: functional
[5] = tested on: Human immunodeficiency virus 1; assay: Selectivity ratio of EC50 for antiviral activity against HIV1 harboring L74M and E92V mutation in catalytic core domain of integrase to EC50 for antiviral activity against wild-type HIV1 3B; type: functional
[6] = tested on: Human immunodeficiency virus 1; assay: Antiviral activity against 0.04 MOI HIV1 3B infected in human MT-2 cells by […] dilution method in presence of 100% human serum; conditions: Human immunodeficiency virus 1, 3B, MT2
[7] = tested on: Human immunodeficiency virus 1; assay: Antiviral activity against 0.001 MOI HIV1 BAL infected in human T lymphocyte cells by p24 antigen ELISA in presence of 10% FBS, HSA and alpha1-AGP; type: functional, organism-based; conditions: Human immunodeficiency virus 1, BAL
in vitro = conditions: human, MT2 cells
Description: Selectivity index, ratio of CC50 for human MT2 cells to EC50 for HIV1 3B in presence of 10% FBS

[8] = tested on: Human immunodeficiency virus 1; assay: Selectivity ratio of EC50 for antiviral activity against GS-9160-resistant HIV1 selected after 8 passages to EC50 for antiviral activity against wild-type HIV1 3B; type: functional
[9] = tested on: Human immunodeficiency virus 1; assay: Selectivity ratio of EC50 for antiviral activity against HIV1 harboring E92V and V151A mutation in catalytic core domain of integrase to EC50 for antiviral activity against wild-type HIV1 3B; type: functional
[10] = tested on: Human immunodeficiency virus 1; assay: Selectivity ratio of EC50 for antiviral activity against HIV1 harboring V151A mutation in catalytic core domain of integrase to EC50 for antiviral activity against wild-type HIV1 3B; type: functional
[11] = tested on: Human immunodeficiency virus 1; assay: Antiviral activity against HIV1 3B infected in human MT-4 cells by two fold dilution method in presence of 10% FBS; type: functional, organism-based; conditions: Human immunodeficiency virus 1, 3B, MT4

Compound	Ratio EC50 [1]	Ratio EC50 [2]	Ratio EC50 [3]	Ratio EC50 [4]	Ratio EC50 [5]	EC50 [6] [nM]	EC50 [7] [nM]	selectivity ratio (in vitro)	Ratio EC50 [8]	Ratio EC50 [9]	Ratio EC50 [10]	EC50 [11] [nM]
O=C(NCc1ccc(F)cc1)c1nc(N2CCCCS2(=O)=O)c2cccnc2c1O	371	2.5	2	1	39	200	60	1500	65	111	5	
CN(c1c2c(c(O)c3ncccc13)C(=O)N(Cc1ccc(F)cc1)C2)S(C)(=O)=O	583	1	2	1	67	30	15	1900	60	104	5	0.7
